In article PMC10891803, “Seleno-Warfare against Cancer: Decoding Antitumor Activity of Novel Acylselenoureas and Se-Acylisoselenoureas” (Pharmaceutics, 2024):

Legend:
HTB-54 = experiment: MTT cell viability assay, HTB-54; assay type: cell-based, human; conditions: 48 h; for percentage of cell growth, HTB-54: 10 µM, MTT screening (Figure S1); for IC50: Homo sapiens, HTB-54, MTT, mean ± SD of three experiments, read-out: IC50 HTB-54 (Lung)
Protocol: (§1) The cell lines were purchased from the American Type Culture Collection (ATCC). The four tumor cell lines used were as follows: MDA-MB-231 (triple-negative breast cancer), HTB-54 (lung cancer), DU-145 (prostate cancer), and HCT-116 (colon cancer), and the non-tumoral cell line 185-B5 (mammary tissue) were grown in Roswell Park Memorial Institute (RPMI) 1640 medium culture (Thermo Scientific, USA), supplemented with 10% fetal bovine serum (FBS) (Thermo Scientific, USA) and 1% of antibiotics (10,000 units/mL penicillin and 10 mg/mL streptomycin (Thermo Scientific, USA)). Cells were preserved in tissue culture flasks at 37 °C and 5% CO2. The culture medium was replaced every two to three days.
(§2) Cell viability was determined using the MTT colorimetric assay. A total of 10,000 cells were seeded in each well in a 96-well plate for 24 h. Then, cells were incubated with the corresponding concentration of each tested compound and with DMSO (1%) as control for 48 h. Each compound was dissolved in DMSO at a stock concentration of 0.01 M. Firstly, each compound was tested at 2 concentrations (10 µM and 50 µM) in four human tumoral cell lines MDA-MB-231, HTB-54, DU-145, and HCT-116. Serial dilutions from stock concentration with culture medium were prepared. […] The cell viability was determined by the addition of 20 µL of MTT and its incubation for 2.5 h. Later, the culture medium was removed, and 50 µL of DMSO was added to dissolve formazan crystals. The absorbance was measured at 550 nm. Inhibitory concentration 50 (IC50) and selectivity index (SI) were calculated. Three different experiments were performed independently.
(§3) Cell viability results are expressed as the mean ± standard deviation (SD), and experiments were independently performed thrice in triplicates. IC50 values were determined using a non-linear curve regression analysis calculated by OriginPro 9.0 software.

HCT-116 = experiment: MTT cell viability assay, HCT-116; assay type: cell-based, human; conditions: 10 µM, 48 h, MTT screening (Figure S1)
Protocol: as §1, §2, §3

[1] = tested on: MDA-MB-231, HTB-54, DU-145, and HCT-116; experiment: MTT initial screening in four tumor cell lines; assay type: cell-based; conditions: Homo sapiens, in at least three cell lines, 48 h, read-out: cell growth inhibition
Protocol: as §2

MDA-MB-231 = experiment: MTT cell viability assay, MDA-MB-231; assay type: cell-based, human; conditions: for percentage of cell growth, MDA-MB-231: 10 µM, MTT screening (Figure S1); for percentage of cell growth, MDA-MB-231 / IC50: 48 h; for IC50: Homo sapiens, MDA-MB-231, MTT, mean ± SD of three experiments, read-out: IC50 MDA-MB-231 (Breast); for Selectivity index (SI): IC50 184-B5/IC50 MDA-MB-231
Protocol: as §1, §2, §3

DU-145 = experiment: MTT cell viability assay, DU-145; assay type: cell-based, human; conditions: 48 h; for percentage of cell growth, DU-145: 10 µM, MTT screening (Figure S1); for IC50: Homo sapiens, DU-145, MTT, mean ± SD of three experiments, read-out: IC50 DU-145 (Prostate)
Protocol: as §1, §2, §3

184-B5 = experiment: MTT cell viability assay, non-malignant 184-B5; assay type: cell-based; conditions: Homo sapiens, 48 h, mean ± SD of three experiments, read-out: IC50 184-B5 (Breast, non-tumoral)
Protocol: as §1, §2, §3

[2] = tested on: panel of 60 cancer cell lines; experiment: NCI60 One-Dose screening; assay type: cell-based; conditions: 1·10^−5 M, 48 h, mean of 60 cancer cell lines
Protocol: (§4) The ten compounds with the highest cell growth inhibition activity were submitted to the Developmental Therapeutics Program (DTP) of the National Cancer Institute (NCI). The assay consists of the evaluation of the cytotoxicity by a One-Dose screening at 10^−5 M against a panel of 60 cancer cell lines of different tumors (leukemia, lung, central nervous system (CNS), melanoma, ovarian, renal, prostate, and breast cancer cell lines). […] A range of 5000–40,000 cells/well were seeded and cultured in RPMI 1640 containing 5% of FBS and 2 mM L-glutamine and were inoculated into 96-well microtiter plates in 100 µL. The microtiter plates are incubated at 37 °C and 5% humidified CO2 for 24 h prior to the addition of experimental drugs. After that, an experimental drug was added, and the microtiter was incubated for 48 h.

[3] = tested on: panel of 60 cancer cell lines; experiment: NCI60 Five-Dose assay; assay type: cell-based; conditions: Five-Dose assay 0.01–100 µM, 48 h, 60 cell line panel
Protocol: as §4

Structure (SMILES)	percentage of cell growth, HTB-54 (HTB-54)	IC50 (HTB-54)	percentage of cell growth, HCT-116 (HCT-116)	inhibition at 10 µM [1]	percentage of cell growth, MDA-MB-231 (MDA-MB-231)	IC50 (MDA-MB-231)	Selectivity index (SI) (MDA-MB-231)	percentage of cell growth, DU-145 (DU-145)	IC50 (DU-145)	IC50 (184-B5)	melting point	mean value of cell growth, One-Dose assay [2]	GI50 [3]
CC(C)NC(=[Se])NC(=O)c1ccc2c(c1)OCO2 [Compound 19]	-4.52%	21.9 ± 9.1 µM	97.76%	> 50%	-45.41%	12.7 ± 10.8 µM	2.89	-82.75%	5.13 ± 0.02 µM	36.8 ± 14.5 µM	–	–	–
CC(C)NC(=[Se])NC(=O)c1ccccc1O [Compound 22]	3.08%	–	80.19%	–	73.13%	–	–	-6.12%	–	–	162 to 164 °C	–	–
CC(C)N=C(NC(C)C)[Se]C(=O)c1ccccc1 [Compound 3]	109.68%	–	119.69%	–	129.19%	–	–	149.27%	–	–	163 to 165 °C	–	–
O=C(/C=C/c1ccccc1)[Se]C(=NC1CCCCC1)NC1CCCCC1 [Compound 2]	74.82%	–	120.40%	–	-19.52%	–	–	118.17%	–	–	156 to 158 °C	–	–
O=C(NC(=[Se])NC1CCCCC1)c1cccs1 [Compound 10]	-25.90%	10.1 ± 4.88 µM	122.54%	> 50%	107.48%	10.1 ± 0.25 µM	4.83	-82.64%	5.18 ± 0.19 µM	49 ± 39.2 µM	64 to 66 °C	–	–
CC(=O)Oc1ccccc1C(=O)[Se]C(=NC1CCCCC1)NC1CCCCC1 [Compound 1]	-52.60%	8.31 ± 1.01 µM	94.15%	> 50%	39.10%	8.56 ± 0.1 µM	1.84	-96.27%	5.17 ± 0.32 µM	15.8 ± 1.33 µM	96 to 97 °C	−68.50%	< 2 µM
CC(C)NC(=[Se])NC(=O)/C=C/c1ccc2c(c1)OCO2 [Compound 21]	27.21%	–	89.57%	–	-6.05%	–	–	76.50%	–	–	172 to 174 °C	–	–
CC(C)NC(=[Se])NC(=O)/C=C/c1cccs1 [Compound 20]	38.63%	–	109.34%	–	65.39%	–	–	-13.89%	–	–	148 to 149 °C	–	–
CC(=O)Oc1ccccc1C(=O)NC(=[Se])NC1CCCCC1 [Compound 9]	-7.60%	29.8 ± 22.5 µM	117.25%	> 50%	1.88%	10.2 ± 0.29 µM	1.11	-44.19%	8.76 ± 2.13 µM	11.4 ± 18 µM	79 to 81 °C	–	–
O=C(/C=C/c1cccs1)NC(=[Se])NC1CCCCC1 [Compound 13]	39.11%	–	145.89%	–	-21.69%	–	–	52.85%	–	–	–	–	–
CC(C)N=C(NC(C)C)[Se]C(=O)Cc1cccs1 [Compound 5]	92.05%	–	139.96%	–	115.35%	–	–	143.58%	–	–	108 to 110 °C	–	–
O=C(NC(=[Se])NC1CCCCC1)c1ccc2c(c1)OCO2 [Compound 12]	-34.26%	10.7 ± 13.7 µM	76.40%	> 50%	-7.07%	30.7 ± 2.31 µM	1.28	-74.14%	5.22 ± 0.13 µM	39.3 ± 18.4 µM	117 to 119 °C	–	–
CC(=O)Oc1ccccc1C(=O)NC(=[Se])NC(C)C [Compound 16]	-0.98%	23 ± 23.5 µM	86.98%	> 50%	24.61%	10.2 ± 13.6 µM	2.17	-67.79%	11.4 ± 3.07 µM	22.2 ± 3.41 µM	75 to 77 °C	–	–
CC(C)NC(=[Se])NC(=O)c1ccccc1 [Compound 15]	-57.90%	26.4 ± 16.9 µM	123.90%	> 50%	-59.41%	24.5 ± 7.55 µM	0.34	-80.57%	5.19 ± 1.55 µM	8.51 ± 4.81 µM	125 to 127 °C	−31.58%	< 2 µM
O=C(NC(=[Se])NC1CCCCC1)c1ccccc1 [Compound 8]	-18.34%	14.6 ± 1.11 µM	104.00%	> 50%	15.90%	17.4 ± 5.09 µM	1.55	-90.24%	8.83 ± 0.16 µM	27 ± 5.2 µM	71 to 73 °C	–	–
CC(C)N=C(NC(C)C)[Se]C(=O)c1ccc2c(c1)OCO2 [Compound 7]	108.33%	–	105.51%	–	119.84%	–	–	131.68%	–	–	138 to 140 °C	–	–
O=C(/C=C/c1ccc2c(c1)OCO2)NC(=[Se])NC1CCCCC1 [Compound 14]	44.98%	–	101.60%	–	83.89%	–	–	10.32%	–	–	149 to 151 °C	–	–
O=C(/C=C/c1ccccc1)NC(=[Se])NC1CCCCC1 [Compound 11]	57.39%	–	103.12%	–	71.20%	–	–	50.53%	–	–	140 to 142 °C	–	–
CC(C)NC(=[Se])NC(=O)/C=C/c1ccccc1 [Compound 18]	57.40%	–	75.78%	–	65.14%	–	–	15.40%	–	–	–	–	–
CC(C)NC(=[Se])NC(=O)c1cccs1 [Compound 17]	-22.97%	5.09 ± 0.34 µM	115.35%	> 50%	20.49%	10.2 ± 0.39 µM	4.15	-72.56%	5.12 ± 0.07 µM	42.2 ± 11.4 µM	120 to 122 °C	–	–
CC(C)N=C(NC(C)C)[Se]C(=O)c1cccs1 [Compound 6]	111.26%	–	122.83%	–	124.62%	–	–	124.09%	–	–	120 to 122 °C	–	–
